Measurements as given in patent publication US20150105252A1, “SUBSTITUTED PYRAZOLES AS HERBICIDES” (E I DU PONT DE NEMOURS AND COMPANY, priority 2013, published 2015).

How the values were obtained:
waterhemp [1] = experiment: Test C preemergence; assay type: in vivo, Amaranthus rudis
Method in brief: (§1)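 In this greenhouse assay, seeded soil (loam plus sand) or emerged seedlings in peat-vermiculite medium were treated with formulated compound. Roughly two weeks later (13–15 days), each species was scored visually relative to controls, from 0 for no effect to 100 for complete control.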

foxtail, giant [2] = experiment: Test C postemergence; assay type: in vivo, Setaria faberii; details: for Plant response rating (scale of 0 to 100 where 0 is no effect and 100 is complete control), Foxtail, Giant: Postemergence, 31 g ai/ha, visually evaluated after 13 to 15 days; for Foxtail, Giant plant response rating / Plant response rating, Foxtail, Giant: postemergence; for Foxtail, Giant plant response rating: 62 g ai/ha, scale 0 to 100
Method in brief: as §1

johnsongrass = experiment: Test C postemergence; assay type: in vivo, Sorghum halepense; details: for Plant response rating (scale of 0 to 100 where 0 is no effect and 100 is complete control), Johnsongrass: Postemergence, 31 g ai/ha, visually evaluated after 13 to 15 days; for Johnsongrass plant response rating / Plant response rating, Johnsongrass: postemergence; for Johnsongrass plant response rating: 62 g ai/ha, scale 0 to 100
Method in brief: as §1

foxtail, giant [3] = experiment: Test A postemergence; assay type: in vivo, Setaria faberii
Method in brief: (§2)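 Seeds were sown in a loam soil–sand blend and given a directed soil spray preemergence; postemergence plants at 2–10 cm, one- to two-leaf stage, were sprayed with compound in non-phytotoxic solvent with surfactant. After about 10 days in a greenhouse, injury was visually rated against untreated controls (0 = no effect, 100 = complete control).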

morningglory = experiment: Test A postemergence; assay type: in vivo, Ipomoea spp.
Method in brief: as §2

foxtail, giant [4] = experiment: Test A preemergence; assay type: in vivo, Setaria faberii; details: preemergence
Method in brief: as §2

ducksalad = experiment: Test B flood; assay type: in vivo, Heteranthera limosa; details: 250 g ai/ha, visual rating on 0 to 100 scale (0 no effect, 100 complete control), 13 to 15 days
Method in brief: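 2-leaf plants; pots flooded 3 cm over soil; compound added to paddy water, depth kept constant. Greenhouse 13–15 d. Visual rating vs controls, 0–100 scale (100 = complete control); dash = no result.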

foxtail, giant [5] = experiment: Test C preemergence; assay type: in vivo, Setaria faberii
Method in brief: as §1

chickweed = experiment: Test C postemergence; assay type: in vivo, Stellaria media; details: for Plant response rating (scale of 0 to 100 where 0 is no effect and 100 is complete control), Chickweed: Postemergence, 31 g ai/ha, visually evaluated after 13 to 15 days; for Chickweed plant response rating / Plant response rating, Chickweed: postemergence; for Chickweed plant response rating: 62 g ai/ha, scale 0 to 100
Method in brief: as §1

crabgrass, large = experiment: Test C preemergence; assay type: in vivo, Digitaria sanguinalis
Method in brief: as §1

waterhemp [6] = experiment: Test C postemergence; assay type: in vivo, Amaranthus rudis; details: for Plant response rating, Waterhemp / Waterhemp plant response rating: postemergence; for Waterhemp plant response rating: scale 0 to 100
Method in brief: as §1

oat, wild = experiment: Test C postemergence; assay type: in vivo, Avena fatua; details: for Plant response rating (scale of 0 to 100 where 0 is no effect and 100 is complete control), Oat, Wild: Postemergence, 31 g ai/ha, visually evaluated after 13 to 15 days; for Oat, Wild plant response rating / Plant response rating, Oat, Wild: postemergence; for Oat, Wild plant response rating: 62 g ai/ha, scale 0 to 100
Method in brief: as §1

galium = experiment: Test C postemergence; assay type: in vivo, Galium aparine; details: for Plant response rating (scale of 0 to 100 where 0 is no effect and 100 is complete control), Galium: Postemergence, 31 g ai/ha, visually evaluated after 13 to 15 days; for Galium plant response rating / Plant response rating, Galium: postemergence; for Galium plant response rating: 62 g ai/ha, scale 0 to 100
Method in brief: as §1

[7] = preemergence, 31 g ai/ha, visual rating, scale 0 to 100 (0 no effect, 100 complete control), 13 to 15 days
[8] = preemergence, 62 g ai/ha, scale 0 to 100 (0 no effect, 100 complete control), 13 to 15 days
[9] = preemergence, 125 g ai/ha, 13 to 15 days, scale 0 to 100, 0 = no effect, 100 = complete control
[10] = preemergence, 250 g ai/ha, scale 0 to 100, 0 is no effect, 100 is complete control
[11] = 250 g ai/ha, scale 0 to 100 (0 no effect, 100 complete control)
[12] = 125 g ai/ha, scale 0 to 100, 0 no effect, 100 complete control
[13] = Postemergence, 500 g ai/ha, 0 to 100 scale (0 no effect, 100 complete control)
[14] = postemergence, 125 g ai/ha, about 10 days, visual rating on 0 to 100 scale (0 no effect, 100 complete control)
[15] = 500 g ai/ha, visual injury after approx. 10 days, 0 to 100 scale (0 no effect, 100 complete control)
[16] = preemergence, 125 g ai/ha, scale 0 to 100, 0 is no effect, 100 is complete control
[17] = Postemergence, 500 g ai/ha, visual rating after approx. 10 days, 0 to 100 scale (0 no effect, 100 complete control)

CCNC(=O)c1cc(CC)n(Cc2cc(C(F)(F)F)nn2C)n1 [Compound 154]
70: Chickweed plant response rating (chickweed)
60: Plant response rating (scale of 0 to 100 where 0 is no effect and 100 is complete control), Chickweed (chickweed) | Plant response rating, Chickweed (chickweed; [12])
100: Waterhemp plant response rating (waterhemp [1]; [8]) | Plant response rating, Waterhemp (waterhemp [1]; [9]) | Waterhemp plant response rating (waterhemp [1]; [10]) | Foxtail, Giant plant response rating (foxtail, giant [3]; [13]) | Foxtail, Giant plant response rating (foxtail, giant [3]; [14]) | Morningglory plant response rating (morningglory; [13]) | Morningglory plant response rating (morningglory; [14]) | Foxtail, Giant plant response rating (0 to 100 scale) (foxtail, giant [4]; 125 g ai/ha, visual injury approx. 10 days after treatment) | Foxtail, Giant plant response rating (foxtail, giant [4]; [15]) | Plant response rating, Foxtail, Giant (foxtail, giant [5]; [9]) | Foxtail, Giant plant response rating (foxtail, giant [5]; [10]) | Crabgrass, Large plant response rating (crabgrass, large; [7]) | Crabgrass, Large plant response rating (crabgrass, large; [8]) | Plant response rating, Crabgrass, Large (crabgrass, large; [9]) | Crabgrass, Large plant response rating (crabgrass, large; [10])
90: Plant response rating, Ducksalad (ducksalad) | Foxtail, Giant plant response rating (foxtail, giant [5]; [8]) | Plant response rating, Chickweed (chickweed; [11])
10: Plant response rating, Foxtail, Giant (foxtail, giant [2]; [11])
5: Plant response rating (scale of 0 to 100 where 0 is no effect and 100 is complete control), Foxtail, Giant (foxtail, giant [2]) | Foxtail, Giant plant response rating (foxtail, giant [2]) | Plant response rating, Foxtail, Giant (foxtail, giant [2]; [12]) | Plant response rating, Johnsongrass (johnsongrass; [11]) | Plant response rating, Johnsongrass (johnsongrass; [12]) | Plant response rating (scale of 0 to 100 where 0 is no effect and 100 is complete control), Oat, Wild (oat, wild) | Oat, Wild plant response rating (oat, wild)
30: Foxtail, Giant plant response rating (foxtail, giant [5]; [7])
65: Waterhemp plant response rating (waterhemp [6]) | Plant response rating, Galium (galium; [12])
85: Waterhemp plant response rating (waterhemp [1]; [7]) | Plant response rating, Waterhemp (waterhemp [6]; [11]) | Plant response rating, Galium (galium; [11])
0: Plant response rating (scale of 0 to 100 where 0 is no effect and 100 is complete control), Johnsongrass (johnsongrass) | Johnsongrass plant response rating (johnsongrass)
50: Plant response rating (scale of 0 to 100 where 0 is no effect and 100 is complete control), Galium (galium) | Galium plant response rating (galium)
25: Plant response rating, Oat, Wild (oat, wild; [11])
20: Plant response rating, Oat, Wild (oat, wild; [12])

CCCNC(=O)c1cc(CC)n(Cc2nc(C(F)(F)F)nn2C)n1 [Compound 109]
65: Plant response rating, Chickweed (chickweed; [11]) | Plant response rating, Galium (galium; [12])
60: Plant response rating, Waterhemp (waterhemp [6]; [12])
55: Plant response rating, Chickweed (chickweed; [12])
80: Plant response rating, Galium (galium; [11])
75: Waterhemp plant response rating (waterhemp [1]; [7]) | Plant response rating, Waterhemp (waterhemp [6]; [11])
100: Plant response rating (scale of 0 to 100), Waterhemp (waterhemp [1]; Preemergence, 250 g ai/ha) | Waterhemp plant response rating (waterhemp [1]; [8]) | Waterhemp plant response rating (waterhemp [1]; [16]) | Morningglory plant response rating (morningglory; [17]) | Foxtail, Giant plant response rating (foxtail, giant [4]; 125 g ai/ha, visual injury, 0 to 100 scale, approx. 10 days) | Foxtail, Giant plant response rating (foxtail, giant [4]; [15]) | Plant response rating (scale of 0 to 100), Foxtail, Giant (foxtail, giant [5]; Preemergence, 250 g ai/ha) | Foxtail, Giant plant response rating (foxtail, giant [5]; [7]) | Foxtail, Giant plant response rating (foxtail, giant [5]; [8]) | Foxtail, Giant plant response rating (foxtail, giant [5]; [16]) | Plant response rating (scale of 0 to 100), Crabgrass, Large (crabgrass, large; Preemergence, 250 g ai/ha) | Crabgrass, Large plant response rating (crabgrass, large; [8]) | Crabgrass, Large plant response rating (crabgrass, large; [16])
45: Plant response rating, Foxtail, Giant (foxtail, giant [2]; [12])
40: Plant response rating (scale of 0 to 100 where 0 is no effect and 100 is complete control), Chickweed (chickweed)
50: Plant response rating, Foxtail, Giant (foxtail, giant [2]; [11]) | Chickweed plant response rating (chickweed) | Plant response rating (scale of 0 to 100 where 0 is no effect and 100 is complete control), Galium (galium) | Galium plant response rating (galium)
0: Plant response rating, Ducksalad (ducksalad) | Plant response rating (scale of 0 to 100 where 0 is no effect and 100 is complete control), Oat, Wild (oat, wild)
10: Plant response rating (scale of 0 to 100 where 0 is no effect and 100 is complete control), Foxtail, Giant (foxtail, giant [2]) | Foxtail, Giant plant response rating (foxtail, giant [2]) | Plant response rating, Johnsongrass (johnsongrass; [11])
90: Foxtail, Giant plant response rating (foxtail, giant [3]; [17]) | Foxtail, Giant plant response rating (foxtail, giant [3]; [14]) | Morningglory plant response rating (morningglory; [14]) | Crabgrass, Large plant response rating (crabgrass, large; [7])
35: Plant response rating (scale of 0 to 100 where 0 is no effect and 100 is complete control), Waterhemp (waterhemp [6]; Postemergence, 31 g ai/ha, visually evaluated after 13 to 15 days) | Waterhemp plant response rating (waterhemp [6]; 62 g ai/ha)
5: Plant response rating (scale of 0 to 100 where 0 is no effect and 100 is complete control), Johnsongrass (johnsongrass) | Johnsongrass plant response rating (johnsongrass) | Plant response rating, Johnsongrass (johnsongrass; [12]) | Oat, Wild plant response rating (oat, wild) | Plant response rating, Oat, Wild (oat, wild; [11]) | Plant response rating, Oat, Wild (oat, wild; [12])
